Like-named read-outs stand apart in the source and are kept apart here.
Target: T1, Zcchc11 enzyme (Homo sapiens, UniProt Q5TAX3)
T1 construct: made in house; host or cells: HEK293 cells (Zcchc11); E. coli Rosetta II (LIN28A)
T1 sequence (Q5TAX3 212-1420): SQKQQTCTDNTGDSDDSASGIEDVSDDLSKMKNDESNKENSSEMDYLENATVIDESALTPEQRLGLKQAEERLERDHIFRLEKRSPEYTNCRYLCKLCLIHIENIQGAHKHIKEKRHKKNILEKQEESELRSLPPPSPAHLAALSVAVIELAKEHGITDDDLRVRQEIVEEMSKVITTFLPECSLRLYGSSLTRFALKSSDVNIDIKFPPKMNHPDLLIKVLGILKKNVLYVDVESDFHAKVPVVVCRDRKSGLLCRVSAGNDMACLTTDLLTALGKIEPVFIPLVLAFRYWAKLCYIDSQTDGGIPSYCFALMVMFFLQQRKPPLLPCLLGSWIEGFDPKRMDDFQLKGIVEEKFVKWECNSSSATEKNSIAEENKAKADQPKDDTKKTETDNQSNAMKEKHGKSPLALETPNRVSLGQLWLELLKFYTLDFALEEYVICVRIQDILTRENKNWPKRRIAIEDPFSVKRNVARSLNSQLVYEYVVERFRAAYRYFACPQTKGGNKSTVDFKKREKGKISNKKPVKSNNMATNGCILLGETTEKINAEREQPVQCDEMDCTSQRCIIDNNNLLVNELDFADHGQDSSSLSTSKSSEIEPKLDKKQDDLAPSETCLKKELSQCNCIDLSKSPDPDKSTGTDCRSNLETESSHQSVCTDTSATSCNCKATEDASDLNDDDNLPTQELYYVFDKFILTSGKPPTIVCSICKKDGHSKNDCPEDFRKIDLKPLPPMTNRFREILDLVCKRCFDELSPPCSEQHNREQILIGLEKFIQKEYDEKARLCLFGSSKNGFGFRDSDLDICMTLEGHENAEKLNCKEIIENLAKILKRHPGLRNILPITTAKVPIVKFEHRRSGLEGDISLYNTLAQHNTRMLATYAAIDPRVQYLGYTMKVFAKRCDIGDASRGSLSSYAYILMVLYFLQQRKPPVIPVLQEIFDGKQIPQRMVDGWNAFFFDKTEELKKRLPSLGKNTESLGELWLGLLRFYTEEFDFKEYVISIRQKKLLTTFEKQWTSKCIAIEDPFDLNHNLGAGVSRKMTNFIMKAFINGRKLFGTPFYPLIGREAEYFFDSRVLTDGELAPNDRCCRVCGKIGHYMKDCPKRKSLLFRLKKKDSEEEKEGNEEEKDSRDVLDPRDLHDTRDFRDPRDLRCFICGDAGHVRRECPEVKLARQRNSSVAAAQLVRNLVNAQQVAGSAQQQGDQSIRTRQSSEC
Test: TUTase assay (Zcchc11 assay, Lin28a-dependent polyuridylation of pre-let-7)
Format: biochemical
Details: read-out: Potency Lin28a-dep Z11 IC50
Method in brief: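 Potency is measured as inhibition of LIN28A-driven U-tail addition to 2 nM pre-let-7 by 0.2 nM HEK293-derived Zcchc11 fragment with 5 uM UTP at room temperature. Tail growth appears as fluorescein quenching by an annealing rhodamine-A20 probe.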

[1] = LIN28A 10 nM, Zcchc11 0.2 nM, 5′-fluorescein pre-let-7 miRNA 2 nM, UTP 5 uM, room temperature, 30 minutes pre-incubation
[2] = Lin28a-dependent Zcchc11 (Z11) TUTase activity
[3] = Lin28a-dependent Zcchc11 (Z11) TUTase assay

Row | Structure (SMILES) | IC50 [1] | IC50 [2] | IC50 [3]
1 | O=C(O)c1cn(-c2ccc(F)c(F)c2)c2cc(N3CCC[C@@H]3COc3ccccn3)c(F)cc2c1=O [Compound 149, (R)-1-(3,4-difluorophenyl)-6-fluoro-4-oxo-7-(2-((pyridin-2-yloxy)methyl)pyrrolidin-1-yl)-1,4-dihydro-quinoline-3-carboxylic acid] |  | 1000 to 10000 nM | 
2 | Cc1cccnc1OC[C@H]1CCCN1c1cc2c(cc1F)c(=O)c(C(=O)O)cn2-c1ccc(F)c(O)c1 [Compound 121, (R)-6-fluoro-1-(4-fluoro-3-hydroxy-phenyl)-7-(2-(((3-methylpyridin-2-yl)oxy)methyl)pyrrolidin-1-yl)-4-oxo-1,4-dihydro-quinoline-3-carboxylic acid] |  | ≤ 1000 nM | 
3 | Cc1cccnc1OC[C@H]1CCCN1c1cc2c(cc1F)c(=O)c(C(=O)O)cn2-c1ccc(N)nc1 [Example 13, (R)-1-(6-aminopyridin-3-yl)-6-fluoro-7-(2-(((3-methylpyridin-2-yl)oxy)methyl)pyrrolidin-1-yl)-4-oxo-1,4-dihydroquinoline-3-carboxylic acid] | ≤ 1000 nM |  | 
4 | COc1ccc(COc2ccc(-n3cc(C(=O)O)c(=O)c4cc(F)c(N5CCC[C@@H]5COc5ncccn5)cc43)c(F)c2)cc1 [Compound 137, (R)-6-fluoro-1-(2-fluoro-4-((4-methoxy-benzyl)oxy)phenyl)-4-oxo-7-(2-((pyrimidin-2-yloxy)methyl)pyrrolidin-1-yl)-1,4-dihydro-quinoline-3-carboxylic acid] |  | ≤ 1000 nM | 
5 | CCS(=O)(=O)Nc1ccc(-n2cc(C(=O)O)c(=O)c3cc(Cl)c(N4CCC[C@@H]4COc4ncccc4Cl)cc32)cc1 [Example 31, (R)-6-chloro-7-(2-(((3-chloropyridin-2-yl)oxy)methyl)pyrrolidin-1-yl)-1-(4-(ethylsulfonamido)phenyl)-4-oxo-1,4-dihydroquinoline-3-carboxylic acid] | ≤ 1000 nM |  | 
6 | Cc1cccnc1OC[C@H]1CCCN1c1cc2c(cc1F)c(=O)c(C(=O)O)cn2-c1cnn(C)c1 [Compound 291, (R)-6-fluoro-1-(1-methyl-1H-pyrazol-4-yl)-7-(2-(((3-methylpyridin-2-yl)oxy)methyl)pyrrolidin-1-yl)-4-oxo-1,4-dihydro-quinoline-3-carboxylic acid] |  | ≤ 1000 nM | 
7 | O=C(O)c1cn(-c2ccc(F)cc2F)c2cc(N3CCC[C@@H]3COc3ccccn3)c(F)cc2c1=O [Compound 84, (R)-1-(2,4-difluorophenyl)-6-fluoro-4-oxo-7-(2-((pyridin-2-yloxy)methyl)pyrrolidin-1-yl)-1,4-dihydro-quinoline-3-carboxylic acid] |  | ≤ 1000 nM | 
8 | CN(C)C1CN(c2ccc(-n3cc(C(=O)O)c(=O)c4cc(F)c(N5CC(c6ccc(O)nc6)C[C@@H]5COc5ncccc5Cl)cc43)cn2)C1 (mixture of isomers) [Compound 189, rac-7-((2R)-2-(((3-chloropyridin-2-yl)oxy)methyl)-4-(6-hydroxy-pyridin-3-yl)pyrrolidin-1-yl)-1-(6-(3-(dimethyl-amino)azetidin-1-yl)pyridin-3-yl)-6-fluoro-4-oxo-1,4-dihydro-quinoline-3-carboxylic acid] |  | ≤ 1000 nM | 
9 | CC1CCN(c2cc3c(cc2Cl)c(=O)c(C(=O)O)cn3-c2ccc(N3CC(N(C)C)C3)nc2)C1COc1ncccc1Cl (centres unmarked) [Compound 306, 6-chloro-7-(2-(((3-chloropyridin-2-yl)oxy)methyl)-3-methyl-pyrrolidin-1-yl)-1-(6-(3-(dimethyl-amino)azetidin-1-yl)pyridin-3-yl)-4-oxo-1,4-dihydro-quinoline-3-carboxylic acid] |  | ≤ 1000 nM | 

Second part, the compound after the results:

Row | IC50 [1] | IC50 [2] | IC50 [3] | Structure (SMILES)
10 | ≤ 1000 nM |  |  | COc1ccc(Cl)c(OC[C@H]2CC3CC3N2c2cc3c(cc2F)c(=O)c(C(=O)O)cn3-c2ccc(N3CC(N(C)C)C3)nc2)n1 (stereo partly drawn) [Example 72, 7-[(3R)-3-{[(3-chloro-6-methoxypyridin-2-yl)oxy]methyl}-2-azabicyclo[3.1.0]hexan-2-yl]-1-{6-[3-(dimethylamino)azetidin-1-yl]pyridin-3-yl}-6-fluoro-4-oxo-1,4-dihydroquinoline-3-carboxylic acid]
11 |  |  | 1000 to 10000 nM | CN(C)C1CN(c2ccc(-n3cc(C(=O)O)c(=O)c4cc(Cl)c(N5CCC[C@@H]5C[S+]([O-])c5ncccc5Cl)cc43)cn2)C1 (stereo partly drawn) [Example 610, 6-chloro-7-((2R)-2-(((3-chloropyridin-2-yl)sulfinyl)methyl)pyrrolidin-1-yl)-1-(6-(3-(dimethylamino)azetidin-1-yl)pyridin-3-yl)-4-oxo-1,4-dihydroquinoline-3-carboxylic acid]
12 |  |  | ≤ 1000 nM | O=C(O)c1cn(-c2ccc(N3CCCC3=O)nc2)c2nc(N3CCC[C@@H]3COc3ncccc3Cl)c(Cl)cc2c1=O [Example 525, (R)-6-chloro-7-(2-(((3-chloropyridin-2-yl)oxy)methyl)pyrrolidin-1-yl)-4-oxo-1-(6-(2-oxopyrrolidin-1-yl)pyridin-3-yl)-1,4-dihydro-1,8-naphthyridine-3-carboxylic acid]
13 | 10000 to 50000 nM |  |  | O=C(O)c1cn2c3cc(c(Cl)cc3c1=O)N1CCC[C@@H]1COc1nc(ccc1Cl)OCCCNc1ccc-2cn1 [Example 55, (R)-26,63-dichloro-24-oxo-21,24-dihydro-5,7-dioxa-11-aza-2(1,7)-quinolina-1(5,2),6(2,6)-dipyridina-3(1,2)-pyrrolidinacycloundecaphane-23-carboxylic acid]
14 | ≤ 1000 nM |  |  | CN(C)C(=O)OC[C@H]1CCCN1c1cc2c(cc1Cl)c(=O)c(C(=O)O)cn2-c1ccc(N2CC(N(C)C)C2)nc1 [Example 49, 6-chloro-1-[6-[3-(dimethylamino)azetidin-1-yl]pyridin-3-yl]-7-[(2R)-2-[[(dimethylcarbamoyl)oxy]methyl]pyrrolidin-1-yl]-4-oxoquinoline-3-carboxylic acid]
15 |  |  | 1000 to 10000 nM | CC1CC1n1cc(C(=O)O)c(=O)c2cc(F)c(N3CCC[C@@H]3COc3ccccn3)cc21 (stereo partly drawn) [Example 446, 6-fluoro-1-(2-methylcyclo-propyl)-4-oxo-7-((R)-2-((pyridin-2-yloxy)methyl)pyrrolidin-1-yl)-1,4-dihydro-quinoline-3-carboxylic acid]
16 |  |  | ≤ 1000 nM | CS(=O)(=O)Nc1cnc(-n2cc(C(=O)O)c(=O)c3cc(Cl)c(N4CCC[C@@H]4COc4ncccc4Cl)cc32)cn1 [Example 493, (R)-6-chloro-7-(2-(((3-chloropyridin-2-yl)oxy)methyl)pyrrolidin-1-yl)-1-(5-(methyl-sulfonamido)pyrazin-2-yl)-4-oxo-1,4-dihydroquinoline-3-carboxylic acid]
17 | ≤ 1000 nM |  |  | CN(C)C1CN(c2ccc(-n3cc(C(=O)O)c(=O)c4cc(C#N)c(N5CCC[C@@]5(C)COc5ncccc5F)cc43)cn2)C1 [Example 51, (S)-6-cyano-1-(6-(3-(dimethylamino)azetidin-1-yl)pyridin-3-yl)-7-(2-(((3-fluoropyridin-2-yl)oxy)methyl)-2-methylpyrrolidin-1-yl)-4-oxo-1,4-dihydroquinoline-3-carboxylic acid]
18 |  |  | ≤ 1000 nM | O=C(O)c1cn(-c2cnc(O)cn2)c2cc(N3CCC[C@@H]3COc3ncccc3Cl)c(Cl)cc2c1=O [Example 364, 6-Chloro-7-[(2R)-2-{[(3-chloropyridin-2-yl)oxy]methyl}pyrrolidin-1-yl]-1-(5-hydroxy-pyrazin-2-yl)-4-oxo-1,4-dihydroquinoline-3-carboxylic acid]
19 |  |  | ≤ 1000 nM | O=C(O)c1cn(-c2ccc(N3CC(O)C3)nc2)c2cc(N3CCC[C@@H]3COc3ncccc3Cl)c(Cl)cc2c1=O [Example 423, (R)-6-chloro-7-(2-(((3-chloropyridin-2-yl)oxy)methyl)pyrrolidin-1-yl)-1-(6-(3-hydroxy-azetidin-1-yl)pyridin-3-yl)-4-oxo-1,4-dihydroquinoline-3-carboxylic acid]
20 |  |  | 1000 to 10000 nM | Cc1c(F)cccc1-n1cc(C(=O)O)c(=O)c2cc(F)c(N3CCC[C@@H]3COc3ccccn3)cc21 [Example 397, (R)-6-fluoro-1-(3-fluoro-2-methylphenyl)-4-oxo-7-(2-((pyridin-2-yloxy)methyl)pyrrolidin-1-yl)-1,4-dihydroquinoline-3-carboxylic acid]

— patent US12662491B2 (Redona Therapeutics, Inc., priority 2020, dated 2026)
